From US20090062361A1, “THERAPEUTIC HYDANTOINS” (ALLERGAN, INC., priority 2007, published 2009) come the findings set out here.

Data set [1] addresses T1, EP2 (Homo sapiens, UniProt P43116). In words: EP2 flipr functional assay. Type of data set: cell-based. The source says:
(§1) United States Patent Application Publication No. 20070129552, incorporated by reference herein, describes the methods used to obtain the in vitro data in the table below.

Data set [2] concerns the target T1, EP2. Briefly: EP2 binding (Ki).
From the text: as §1

In data set [3] the target is T2, EP4 (Homo sapiens, UniProt P35408). Briefly: EP4 binding (KI).
From the text: as §1

A further data set deals with T3, hEP3A (Homo sapiens, UniProt P43115).
T3 sequence (P43115 1-390): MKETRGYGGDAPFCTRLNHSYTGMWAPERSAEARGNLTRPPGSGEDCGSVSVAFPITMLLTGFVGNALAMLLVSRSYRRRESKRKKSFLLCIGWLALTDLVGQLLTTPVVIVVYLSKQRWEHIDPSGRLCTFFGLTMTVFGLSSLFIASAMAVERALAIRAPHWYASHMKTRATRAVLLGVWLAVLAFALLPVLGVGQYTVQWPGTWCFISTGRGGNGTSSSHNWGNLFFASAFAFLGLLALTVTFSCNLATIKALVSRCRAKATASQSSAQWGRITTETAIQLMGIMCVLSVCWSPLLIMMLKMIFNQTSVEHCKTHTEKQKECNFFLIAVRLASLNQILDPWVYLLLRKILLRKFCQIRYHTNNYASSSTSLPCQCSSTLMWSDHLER
Briefly: Other receptors functional assay, hEP3A. The data set is classed as cell-based.
From the text: as §1

For another data set, the target named is T4, hDP (Homo sapiens, UniProt Q13258).
T4 sequence (Q13258 1-359): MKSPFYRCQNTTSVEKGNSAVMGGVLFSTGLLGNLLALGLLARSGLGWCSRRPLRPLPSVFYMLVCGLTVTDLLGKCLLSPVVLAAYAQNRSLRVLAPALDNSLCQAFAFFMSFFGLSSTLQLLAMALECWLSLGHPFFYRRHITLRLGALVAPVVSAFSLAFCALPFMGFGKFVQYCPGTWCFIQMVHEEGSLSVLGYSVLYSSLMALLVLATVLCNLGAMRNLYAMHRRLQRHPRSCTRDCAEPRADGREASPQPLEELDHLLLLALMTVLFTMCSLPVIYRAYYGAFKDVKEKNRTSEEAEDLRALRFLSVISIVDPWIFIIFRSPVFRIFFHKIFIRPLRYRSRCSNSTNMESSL
In words: Other receptors functional assay, hDP. Type of data set: cell-based.
From the text: as §1

The next data set relates to normotensive dogs. In words: Intraocular pressure and ocular surface hyperemia in normotensive dogs. The data set is classed as in vivo. The settings on record: 0.003%, once daily for 5 days. How it is done: (§2) U.S. Pat. No. 7,091,231 describes the methods used to carry out the tests reported below.
(§3) Isopropyl 5-(3-(3-(4-(1-hydroxyhexyl)phenyl)-2,5-dioxoimidazolidin-4-yl)propyl)thiophene-2-carboxylate (31) was tested in normotensive dogs at 0.003%, dosing once daily for 5 days. The maximum intraocular pressure (IOP) decrease from baseline was 7.7 mmHg (45%) at 102 h; the maximum ocular surface hyperemia (OSH) score was 2.5 at 26 h. This compound was also tested in laser-induced hypertensive monkeys, using one single day dose. At 0.003%, the maximum IOP decrease from baseline was 23 mmHg (53%) at 24 h.
(§4) Isopropyl 5-(3-(3-(4-hexanoylphenyl)-2,5-dioxoimidazolidin-4-yl)propyl)thiophene-2-carboxylate (32) was tested in normotensive dogs at 0.003%, dosing once daily for 5 days. The maximum intraocular pressure (IOP) decrease from baseline was 8.9 mmHg (48%) at 54 h; the maximum ocular surface hyperemia (OSH) score was 2.3 at 54 h. This compound was also tested in laser-induced hypertensive monkeys, using one single day dose. At 0.003%, the maximum IOP decrease from baseline was 19 mmHg (49%) at 24 h.

Data set [4] relates to laser-induced hypertensive monkeys. Briefly: Intraocular pressure in laser-induced hypertensive monkeys. Type of data set: in vivo. The settings on record: 0.003%, one single day dose, at 24 h. How it is done: as §2, §3, §4
For data set [5], the target named is T2, EP4. Briefly: EP4 flipr functional assay. The data set is classed as cell-based.
From the text: as §1

T2 sequence (P35408 whole entry): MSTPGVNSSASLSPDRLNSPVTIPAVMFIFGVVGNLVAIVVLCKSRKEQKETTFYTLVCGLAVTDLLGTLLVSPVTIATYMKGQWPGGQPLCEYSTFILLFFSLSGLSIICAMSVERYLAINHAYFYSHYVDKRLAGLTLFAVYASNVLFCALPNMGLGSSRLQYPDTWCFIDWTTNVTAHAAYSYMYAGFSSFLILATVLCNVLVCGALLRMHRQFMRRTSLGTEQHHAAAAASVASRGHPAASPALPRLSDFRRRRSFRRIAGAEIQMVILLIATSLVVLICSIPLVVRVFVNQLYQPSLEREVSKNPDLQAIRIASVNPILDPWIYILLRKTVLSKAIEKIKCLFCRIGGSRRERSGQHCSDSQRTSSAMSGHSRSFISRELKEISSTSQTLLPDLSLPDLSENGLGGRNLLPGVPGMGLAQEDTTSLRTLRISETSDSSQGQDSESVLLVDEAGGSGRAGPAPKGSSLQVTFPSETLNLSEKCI
T1 sequence (P43116 whole entry): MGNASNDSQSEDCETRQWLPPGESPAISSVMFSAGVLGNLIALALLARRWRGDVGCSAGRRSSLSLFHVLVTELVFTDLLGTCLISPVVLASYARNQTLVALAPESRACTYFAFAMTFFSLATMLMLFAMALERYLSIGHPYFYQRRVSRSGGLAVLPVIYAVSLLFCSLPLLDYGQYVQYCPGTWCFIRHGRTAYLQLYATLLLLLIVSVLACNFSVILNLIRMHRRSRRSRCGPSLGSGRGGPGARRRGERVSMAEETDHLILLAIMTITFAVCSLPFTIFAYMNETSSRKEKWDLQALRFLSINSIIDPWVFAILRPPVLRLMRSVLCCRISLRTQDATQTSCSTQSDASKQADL

On to `CCCCC[C@H](O)c1ccc(N2C(=O)NC(=O)C2CCCc2ccc(C(=O)O)s2)cc1` (stereo in doubt) [Example 2, 5-(3-(3-(4-(1-hydroxyhexyl)phenyl)-2,5-dioxoimidazolidin-4-yl)propyl)thiophene-2-carboxylic acid], for which the EC50 (usually the concentration at which the effect is half-maximal) on EP2 [1] worked out at 3.5 nM; on hEP3A, 10 nM; on hDP, 17400 nM. For the same compound, the inhibitory constant (Ki) (usually the dissociation constant of the complex between target and ligand, obtained from inhibition or displacement) at EP2 [2] was 5 nM; at EP4 [3] it was more than 10 µM.
`CCCCCC(=O)c1ccc(N2C(=O)NC(=O)C2CCCc2ccc(C(=O)OC(C)C)s2)cc1` (stereo not shown) [Example 32, Isopropyl 5-(3-(3-(4-hexanoylphenyl)-2,5-dioxoimidazolidin-4-yl)propyl)thiophene-2-carboxylate]: in the data set on normotensive dogs (at 54 h), the “maximum intraocular pressure (IOP) decrease from baseline” value turned out to be 8.9 mmHg, the “maximum intraocular pressure (IOP) decrease from baseline (percent)” value is 48% and the “maximum ocular surface hyperemia (OSH) score” value is recorded as 2.3. Further, in data set [4], the “maximum IOP decrease from baseline” value is reported as 19 mmHg and the “maximum IOP decrease from baseline (percent)” value is 49%.
`CCCCC[C@@H](O)c1ccc(N2C(=O)NC(=O)[C@@H]2CCCc2ccc(C(=O)O)s2)cc1` [Example 10, 5-(3-((S)-3-(4-((R)-1-hydroxyhexyl)phenyl)-2,5-dioxoimidazolidin-4-yl)propyl)thiophene-2-carboxylic acid]: the EC50 on EP2 [1] amounted to 1 nM; at EP4 [5] it was 2 µM; at hEP3A it was 15 nM; at hDP, 19300 nM. Besides, the Ki on EP2 [2] was determined as 1 nM; at EP4 [3], 7.21 µM.
In the case of `CCCCC[C@H](O)c1ccc(N2C(=O)NC(=O)[C@@H]2CCCc2ccc(C(=O)O)s2)cc1` [Example 7, 5-(3-((S)-3-(4-((S)-1-hydroxyhexyl)phenyl)-2,5-dioxoimidazolidin-4-yl)propyl)thiophene-2-carboxylic acid], the figures for the half-maximal effective concentration (EC50) on EP2 [1], at hEP3A and on hDP were 4 nM, 5 nM and more than 10000 nM, respectively. Also, the Ki on EP2 [2] amounted to 2 nM; on EP4 [3] it was 5.07 µM.
Take `CCCCC[C@H](O)c1ccc(N2C(=O)NC(=O)[C@H]2CCCc2ccc(C(=O)O)s2)cc1` [Example 8, 5-(3-((R)-3-(4-((S)-1-hydroxyhexyl)phenyl)-2,5-dioxoimidazolidin-4-yl)propyl)thiophene-2-carboxylic acid]: the results for the EC50 at EP2 [1], at hEP3A and on hDP were 23 nM, 29 nM and more than 10000 nM, respectively. The Ki was 4 nM at EP2 [2] and 7.19 µM on EP4 [3].
With `CCCCCC(O)c1ccc(N2C(=O)NC(=O)C2CCCc2ccc(C(=O)OC(C)C)s2)cc1` (stereo not shown) [Example 31, Isopropyl 5-(3-(3-(4-(1-hydroxyhexyl)phenyl)-2,5-dioxoimidazolidin-4-yl)propyl)thiophene-2-carboxylate], in the data set on normotensive dogs (at 26 h), the “maximum ocular surface hyperemia (OSH) score” value was found to be 2.5. In the data set on normotensive dogs (at 102 h), the “maximum intraocular pressure (IOP) decrease from baseline” value was 7.7 mmHg and the “maximum intraocular pressure (IOP) decrease from baseline (percent)” value is 45%. For the same compound, in data set [4], the “maximum IOP decrease from baseline” value came to 23 mmHg and the “maximum IOP decrease from baseline (percent)” value is 53%.
Turning to `CCCCCC(=O)c1ccc(N2C(=O)NC(=O)C2CCCc2ccc(C(=O)O)s2)cc1` (stereo not shown) [Example 1, 5-(3-(3-(4-hexanoylphenyl)-2,5-dioxoimidazolidin-4-yl)propyl)thiophene-2-carboxylic acid], the EC50 was 17 nM at EP2 [1], 17.5 µM on EP4 [5], 131 nM on hEP3A and 8810 nM at hDP. For the same compound, the Ki came out at 4.5 nM on EP2 [2] and 3.24 µM on EP4 [3].
